Measured values: PMC3479139, “Diverse Small Molecule Inhibitors of Human Apurinic/Apyrimidinic Endonuclease APE1 Identified from a Screen of a Large Public Collection” (PLoS ONE, 2012)
Like-named read-outs stand apart in the source and are kept apart here.

Assays:
[1] = biological target: T1, APE1 (Homo sapiens, UniProt P27695); assay: Fluorogenic kinetic qHTS APE1 incision assay (primary screen and retest of cherrypicked samples); type: biochemical;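 note: purified APE1 cleaving a fluorophore/dark-quencher labelled 17-mer duplex DNA bearing a tetrahydrofuran AP site, fluorescence rise followed kinetically over the first 2 min, inhibition normalized to controls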
T1 construct: made in house
T1 sequence (P27695 whole entry): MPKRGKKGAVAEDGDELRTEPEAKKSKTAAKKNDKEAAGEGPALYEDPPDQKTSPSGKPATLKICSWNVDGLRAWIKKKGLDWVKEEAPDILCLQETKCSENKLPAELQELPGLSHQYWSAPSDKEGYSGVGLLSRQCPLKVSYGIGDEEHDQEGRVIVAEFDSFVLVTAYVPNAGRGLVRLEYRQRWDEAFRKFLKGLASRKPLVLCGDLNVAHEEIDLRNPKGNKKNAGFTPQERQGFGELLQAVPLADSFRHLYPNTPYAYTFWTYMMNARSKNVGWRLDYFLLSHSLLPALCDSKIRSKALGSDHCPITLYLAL

[2] = biological target: T1, APE1; assay: Gel-based radiotracer (32P) APE1 incision assay; type: biochemical; parameters: concentration or dose not given beside the values; conditions: percent incision shown; entries 1-112;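 note: APE1 incision reactions ran 5 min at 37 °C, with cleaved product and intact substrate resolved electrophoretically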
[3] = biological target: T1, APE1; assay: Fluorescence polarization (FP) displacement assay of APE1 binding to AP-DNA probe; conditions: read-out: FP IC50;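 note: TAMRA 5′-labeled duplex DNA with THF abasic site (5 nM) and APE1 (20 nM), Mg2+-free buffer, 15 min at room temperature, inhibition seen as lowered polarization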
Procedure: Double-stranded oligodeoxynucleotide containing tetrahydrofuran (THF) abasic site labeled with TAMRA at the 5′-end was used as the labeled binding probe. Inhibition of APE1 binding to labeled probe was detected by a decrease in the fluorescence polarization (FP) of the fluorophore. Briefly, 4 µL mixture of 20 nM APE1 and 5 nM probe contained in the enzymatic assay buffer from which Mg^2+ was omitted, was dispensed into 1536-well Greiner black solid bottom plates. Compounds (23 nL) were transferred via pintool, and after a 15-minute incubation at room temperature, fluorescence polarization was measured in a ViewLux High-throughput CCD imager (480 nm excitation and 540 nm emission) to determine the degree of probe displacement caused by the test compounds.

[4] = biological target: double-stranded 17-mer DNA fragment; assay: ThO (Thiazole Orange) DNA displacement assay; type: binding;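 note: miniaturized displacement of the intercalating dye from unlabeled duplex DNA, used to flag nonspecific DNA binders, chiefly intercalators, groove binders may be missed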
Source text: The double-stranded 17-mer DNA fragment used in the ThO DNA binding assay was of the same sequence as the fluorogenic HTS substrate but carried no dye labels.
(§1) In order to screen out nonselective compounds, such as non-specific DNA binders and inhibitors of related enzymes, we used a miniaturized ThO DNA displacement assay and a counterscreen against the bacterial endonuclease E. coli Endo IV, respectively, following the previously published protocols [21].
To detect screening hits that inhibit APE1 activity through non-specific DNA interactions, we employed a previously established miniaturized ThO dye displacement assay [21]. […] We note that the ThO assay reports primarily on DNA binders acting through intercalation, while potentially missing other types of DNA binders, such as those acting through the minor groove.

[5] = biological target: T2, E. coli Endo IV (Escherichia coli, UniProt P0A6C1); assay: E. coli Endo IV profiling counterscreen; type: biochemical; conditions: for IC50: read-out: EndoIV IC50;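 for all read-outs here: selectivity counterscreen of candidate APE1 inhibitors against the bacterial endonuclease Endo IV, run in the same assay format as the primary APE1 high-throughput screen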
T2 construct: made in house
Source text: as §1
To probe the selectivity of the candidate APE1 inhibitors, we tested them against E. coli EndoIV [36], employing the same assay as used in the HTS.

[6] = initial quantitative high-throughput screen, read-out: APE1 qHTS IC50
[7] = retest of cherrypicked sample, read-out: APE1 Retest IC50

Row | Compound | IC50 [1, 6] [µM] | IC50 [1, 7] [µM] | Radiotracer Assay (%Activity) [2] [%] | IC50 [3] [µM] | IC50 ([4]; read-out: ThO-DNA binding IC50) [µM] | IC50 [5] [µM] | IC50 ([4]; read-out: ThO dye displacement IC50) [µM] | Concentration response against EndoIV [5] | ThO assay signal behaviour (autofluorescence interference) [4] | IC50 ([1]; control on every assay plate, average over screen, read-out: IC50 of intra-plate control titration) [µM]
1 | CCOC(=O)c1cc(-c2ccc(N3CCOCC3)cc2)nn1-c1ccccc1C(=O)O [MLS000759946] | 2.5 | 14.1 | 27 | 15.8 | > 57 | > 57 | – | – | – | –
2 | Cc1cc(C=O)c(C)n1-c1ccc(Cl)c(C(=O)O)c1 [MLS000676588] | 5.6 | 8.9 | 31 | > 57 | > 57 | > 57 | – | – | – | –
3 | O=C1CCCC(O)=C1N=Nc1ccc(C(=O)O)cc1 [MLS000759943] | 8.9 | 10 | 47 | > 57 | > 57 | > 57 | – | – | – | –
4 | N#Cc1ccccc1CN1C(=O)S/C(=C/c2cccn2-c2cccc(C(=O)O)c2)C1=O [MLS000539676] | 19.9 | 14.1 | 25 | > 57 | > 57 | > 57 | – | – | – | –
5 | NC(=O)Cn1c(=O)n(Cc2ccco2)c(=O)c2c3c(sc21)CCCCC3 [MLS000559128] | 31.6 | 10 | 21 | 7.1 | > 57 | > 57 | – | – | – | –
6 | Cn1c(SCC(=O)Nc2nncs2)nnc1C1CC1 [MLS001060429] | – | – | – | – | > 57 | > 57 | – | – | – | –
7 | O=C(O)CCCN1C(=O)/C(=C/C=C/c2ccco2)SC1=S [MLS000778631] | 35.5 | 5 | 41 | > 57 | > 57 | > 57 | – | – | – | –
8 | O=c1ccc2[n+]([O-])c3ccc([O-])cc3oc-2c1.[Na+] [MLS000778776] | 25.1 | 12.4 | 5 | 0.02 | > 57 | 4.5 | – | – | – | –
9 | COc1cc(/C=N/Nc2ccc(C(=O)O)cc2)ccc1O [MLS000685676] | 14.1 | 14.1 | 50 | > 57 | > 57 | > 57 | – | – | – | –
10 | Cc1c(NS(=O)(=O)c2cc(C(=O)NCCN(C)C)ccc2Cl)c(=O)n(-c2ccccc2)n1C [MLS001175210] | – | – | – | – | > 57 | > 57 | – | – | – | –
11 | COc1ccccc1NC(=O)COC(=O)c1cc2c(s1)CCC2 [MLS002161511] | – | – | – | – | > 57 | 18.2 | – | – | – | –
12 | CC(C)OCCOc1ccc2oc(-c3ccco3)cc(=O)c2c1 [MLS001163009] | – | – | – | – | > 57 | > 57 | – | – | – | –
13 | COc1cc(N(C)C)cc(CN(C)CCc2ccc([N+](=O)[O-])cc2)c1O [NCGC00165741] | 3.2 | 0.3 | 10.6 | > 57 | > 57 | > 57 | – | – | – | –
14 | CN(CC(=O)Nc1cccc(F)c1)C(=O)c1cc(-c2ccco2)nc2ccccc12 [MLS001156482] | – | – | – | – | 40.8 | > 57 | – | – | – | –
15 | N#C/C(=C/c1cccn1-c1cccc(C(=O)O)c1)c1ccc(Cl)cc1 [MLS000621431] | 11.2 | 5 | 44 | > 57 | > 57 | > 57 | – | – | – | –
16 | phthalocyanine tetrasulfonate hydrate [NCGC00165867] | 0.3 | 0.06 | 6.2 | 0.2 | 0.6 | – | 0.631 | complete concentration response curves | – | –
17 | O=C(NN1C(=O)/C(=C/C=C/c2ccco2)SC1=S)c1ccncc1 [MLS000762704] | 4.5 | 4.5 | 36 | > 57 | > 57 | > 57 | – | – | – | –
18 | CCN(CC)C(=O)CC(c1cc(OC)c(OC)c(OC)c1)c1c(OC)cc(OC)c2c(-c3ccccc3)cc(=O)oc12 (stereo not drawn) [MLS000879482] | 22.4 | 5 | 37 | 12.6 | > 57 | > 57 | – | – | – | –
19 | O=C(O)c1ccc(-n2cccc2/C=C2/NC(=O)N(c3ccccc3)C2=O)cc1 [MLS000778414] | 2.5 | 4 | 37 | 12.6 | > 57 | > 57 | – | – | – | –
20 | CC(=O)NC1=NC(=O)/C(=C/c2cc(C)n(-c3cccc(C(=O)O)c3)c2C)S1 [MLS000673948] | 3.5 | 4.4 | 30 | > 57 | > 57 | > 57 | – | – | – | –
21 | CCN(CC)c1ccc(C(=C2C=CC(=[N+](CC)Cc3cccc(S(=O)(=O)[O-])c3)C=C2)c2ccc(N(CC)Cc3cccc(S(=O)(=O)O)c3)cc2)cc1 [NCGC00166058] | 31.6 | 25.1 | 13.4 | 31.6 | 35.5 | 28.2 | – | complete concentration response curves | – | –
22 | Cc1c2c(c(O)c3c(O)cccc13)C(=O)O[C@H]2C1C(N(C)C)C(O)=C(C(N)=O)C(=O)[C@H]1O (stereo partly drawn) [NCGC00163605] | 2 | 1.6 | 2.7 | 2.2 | – | > 57 | – | – | strong dose-dependent fluorescence signal increase | –
23 | Cc1ccc2c(=O)cc(C(=O)NCCc3ccc(S(N)(=O)=O)cc3)oc2c1 [MLS001216111] | – | – | – | – | 36.3 | > 57 | – | – | – | –
24 | COc1ccc(CNC(=O)COC(=O)c2ccc(S(=O)(=O)NCc3ccco3)cc2)cc1 [MLS002252767] | – | – | – | – | > 57 | > 57 | – | – | – | –

Row | Compound | IC50 [1, 6] [µM] | IC50 [1, 7] [µM] | Radiotracer Assay (%Activity) [2] [%] | IC50 [3] [µM] | IC50 ([4]; read-out: ThO-DNA binding IC50) [µM] | IC50 [5] [µM] | IC50 ([4]; read-out: ThO dye displacement IC50) [µM] | Concentration response against EndoIV [5] | ThO assay signal behaviour (autofluorescence interference) [4] | IC50 ([1]; control on every assay plate, average over screen, read-out: IC50 of intra-plate control titration) [µM]
25 | O=C1NN(c2ccccc2)C(=O)/C1=C/c1ccc(-c2ccc(Cl)c(C(=O)O)c2)o1 [MLS000682903] | 12.6 | 15.6 | 37 | 15.8 | > 57 | > 57 | – | – | – | –
26 | O=C(COC(=O)c1cc2c(s1)CCC2)Nc1ccc(F)cc1 [MLS000334872] | – | 10 | 39 | 12.6 | > 57 | > 57 | – | – | – | –
27 | NC(Cc1ccc(O)c(O)c1)C(=O)O (stereo not drawn) [NCGC00095195] | 0.3 | 0.1 | 28.3 | > 57 | > 57 | > 57 | – | – | – | –
28 | O=C(COC(=O)/C=C/c1ccco1)NCc1ccco1 [MLS001004396] | – | – | – | – | > 57 | > 57 | – | – | – | –
29 | O=C(O)c1cc[c]([Sb](=[O])([OH])[OH])cc1[N+](=O)[O-] [NSC-13755, reference compound] | – | – | – | – | – | – | – | – | – | 0.035
30 | O=C(O)c1cccc(-c2ccc(/C=c3/sc4nc5ccccc5n4c3=O)o2)c1 [MLS000777053] | 10 | 5 | 23 | 7.9 | 6.3 | > 57 | – | – | – | –
31 | COC(=O)c1c(C)[nH]c(C(=O)COc2ccc3ccc(=O)oc3c2)c1C [MLS002156353] | – | – | – | – | – | > 57 | – | – | – | –
32 | O=C(CCC(=O)c1ccc(Oc2ccccc2)cc1)Nc1ccc(C(=O)O)cc1 [MLS001001328] | – | – | – | – | > 57 | > 57 | – | – | – | –
33 | CC1(C)C(=O)CC[C@]2(C)C3C(=O)C=C4[C@H]5C[C@@](C)(C(=O)O)CC[C@]5(C)CC[C@]4(C)[C@]3(C)CC[C@@H]12 (stereo partly drawn) [MLS000697684] | – | – | – | – | > 57 | > 57 | – | – | – | –
34 | O=C(COC(=O)C1CC(=O)N(Cc2ccco2)C1)c1ccc(OC(=O)c2ccccc2)cc1 (stereo not drawn) [MLS000548444] | – | – | 35 | – | > 57 | 10 | – | – | – | –
35 | COc1ccc(S(=O)(=O)N2CCN(C(=O)C3COc4ccccc4O3)CC2)cc1 (stereo not drawn) [MLS002159357] | – | – | – | – | > 57 | > 57 | – | – | – | –
36 | N[C@H](Cc1ccc(O)c(O)c1)C(=O)O [NCGC00093869] | 1 | 3.5 | 11.3 | – | > 57 | > 57 | – | – | – | –
37 | O=C(/C=C/c1ccco1)OCC(=O)N1CCCCC1 [MLS002246602] | – | – | – | – | > 57 | > 57 | – | – | – | –
38 | COc1cc(/C=C(\C#N)C(=O)Nc2cccc(C(=O)O)c2)ccc1OCc1ccc(Cl)cc1 [MLS001172702] | – | – | – | – | > 57 | > 57 | – | – | – | –
39 | C=CCn1c(SCC(=O)Nc2sc3c(c2C#N)CCC(C)C3)nc2cc(C(=O)O)ccc2c1=O (stereo not drawn) [MLS002251505] | – | – | – | – | > 57 | > 57 | – | – | – | –
40 | Cc1ccc(C)c(OCCn2ccnc2)c1 [MLS000974607] | – | – | – | – | > 57 | > 57 | – | – | – | –
41 | O=C(Cc1ccc(S(=O)(=O)N2CCOCC2)s1)Nc1nc2c(s1)CCCC2 [MLS000567201] | – | – | – | – | 15.8 | > 57 | – | – | – | –
42 | O=[N+]([O-])c1ccc(Cl)c(-c2ccc(/C=N/n3cnnc3)o2)c1 [MLS001194618] | – | – | – | – | > 57 | > 57 | – | – | – | –
43 | NS(=O)(=O)c1ccc(CCNC(=O)c2ccc3nccnc3c2)cc1 [MLS002252586] | – | – | – | – | > 57 | > 57 | – | – | – | –
44 | CNS(=O)(=O)c1cccc(C(=O)OCC(=O)c2ccc[nH]2)c1 [MLS002163823] | – | – | – | – | > 57 | > 57 | – | – | – | –
45 | O=C(COC(=O)/C=C/c1ccco1)NCc1ccc2c(c1)OCO2 [MLS001006993] | – | – | – | – | > 57 | > 57 | – | – | – | –
46 | O=C(O)Cc1ccc(S(=O)(=O)N2CCCC2)s1 [MLS002245326] | – | – | – | – | > 57 | > 57 | – | – | – | –
47 | O=C(COc1ccccc1[N+](=O)[O-])Nc1cccc(S(=O)(=O)NC2=NCCCCC2)c1 [MLS001078387] | – | – | – | – | > 57 | > 57 | – | – | – | –
48 | O=C(O)C1C2C=CC(C2)C1C(=O)Nc1ccccc1Br (stereo not drawn) [MLS001008562] | – | – | – | – | > 57 | > 57 | – | – | – | –
